Experimental data published in ChEMBL document CHEMBL3137667, “[Drug-induced liver injury; fourteenth updated edition of the bibliographic database of liver injuries and related drugs]” (Gastroenterol Clin Biol, 2004).

Columns and labels:
[1] = human
[2] = human; remark: listed apart in the source
[3] = human; remark: listed apart in the source
[4] = human; remark: listed apart in the source
[5] = human; remark: listed apart in the source
[6] = human; remark: listed apart in the source
[7] = Highest frequency of moderate liver toxicity observed during clinical trials, expressed as a percentage. [column '% BIOL' in source]; settings: human
[8] = Highest frequency of acute liver toxicity observed during clinical trials, expressed as a percentage. [column '% AIGUE' in source]; settings: human
[9] = human, serum
[10] = human, serum; remark: listed apart in the source
[11] = Times to onset, minimal and maximal, observed in the indexed observations. [column 'DELAI' in source]; settings: human
[12] = human; remark: listed apart in the source
[13] = human; remark: listed apart in the source
[14] = Proposed mechanism(s) of liver damage. [column 'MEC' in source]; settings: human
[15] = Comments (NB not yet translated). [column 'COMMENTAIRES' in source]; settings: human
[16] = human; remark: listed apart in the source
[17] = human, serum, 4383 h
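Wherever Hepatotoxicity (association with vascular disease) is given: count of indexed literature references reporting vascular liver injury in humans, e.g. peliosis hepatitis, hepatic veno-occlusive disease or Budd-Chiari syndrome.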
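Wherever Hepatotoxicity (benign tumour) is given: value is a count of indexed literature references citing a benign tumour confirmed by histopathology.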
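Wherever Hepatotoxicity (choleostasis) is given: human cholestatic liver injury, shown by histopathology or by peak ALT or AST elevation over alkaline phosphatase ratio below 2, value counts indexed literature reports.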
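Wherever Hepatotoxicity (chronic liver disease) is given: chronic liver injury confirmed by histopathology or persistently raised serum aminotransferase activity beyond 6 months, value given as the count of indexed literature references.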
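Wherever Hepatotoxicity (cirrhosis) is given: value is a count of indexed literature references reporting cirrhosis confirmed by histopathology.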
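Wherever Hepatotoxicity (cytolytic) is given: human cytolytic liver injury, shown by histopathology or by a ratio above 5 of peak ALT or AST elevation to alkaline phosphatase elevation, value counts indexed references.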
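Wherever Hepatotoxicity (granulomatous hepatitis) is given: value is a count of indexed literature references reporting granulomatous liver disease confirmed by histopathology.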
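Wherever Hepatotoxicity (malignant tumour) is given: malignant tumour confirmed by histopathology, value gives the count of indexed literature references reporting it.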
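Wherever Hepatotoxicity (severe hepatitis) is given: human clinical data: severe hepatitis, meaning potentially life-threatening liver failure or clinically observed cases, the value counts how many indexed literature references report it.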
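Wherever Hepatotoxicity (steatosis) is given: steatosis confirmed by histopathology, value is the count of indexed references.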

| SMILES | Hepatotoxicity (cytolytic) [1] | Hepatotoxicity (association with vascular disease) [2] | Hepatotoxicity (severe hepatitis) [3] | Hepatotoxicity (cirrhosis) [4] | Hepatotoxicity (malignant tumour) [5] | Hepatotoxicity (steatosis) [6] | Hepatotoxicity (moderate) [7] [%] | Hepatotoxicity (acute) [8] [%] | Hepatotoxicity (acute) [9] | Hepatotoxicity (moderate) [10] | Hepatotoxicity (time to onset) [11] | Hepatotoxicity (benign tumour) [12] | Hepatotoxicity (granulomatous hepatitis) [13] | Hepatotoxicity (mechanism) [14] | Hepatotoxicity (comment) [15] | Hepatotoxicity (choleostasis) [16] | Hepatotoxicity (chronic liver disease) [17] | also measured |
| --- | --- | --- | --- | --- | --- | --- | --- | --- | --- | --- | --- | --- | --- | --- | --- | --- | --- | --- |
| Cc1cccc(C)c1NC(=O)C(C)N (stereo not drawn) [TOCAINIDE] | 5 | 0 | 0 | 0 | 0 | 1 | 1.7 | 0 | 6 | 2 | 1 month - 2 months | 0 | 1 | Allergic | AC_ANTI-N/-ML | 4 | 0 | – |
| Nc1ccc(S(=O)(=O)Nc2ncccn2)cc1 [SULFADIAZINE] | – | 0 | – | 0 | 0 | 0 | – | – | 8 | 2 | 1 week - 2 months | 0 | – | – | CHOLESTASE_PROLONGEE | – | 0 | Hepatotoxicity (cytolytic) ([1]; Liver): 3; Hepatotoxicity (severe hepatitis) ([3]; Liver): 1; Hepatotoxicity (moderate) ([7]; Liver): 2.7%; Hepatotoxicity (acute) ([8]; Liver): 0%; Hepatotoxicity (granulomatous hepatitis) ([13]; Liver): 0; Hepatotoxicity (mechanism) ([14]; Liver): Allergic, Reactive metabolite; Hepatotoxicity (choleostasis) ([16]; Liver): 1 |
| CC(C)NCC(O)COc1cccc2ccccc12 (stereo not drawn) [PROPRANOLOL] | 4 | 0 | 0 | 0 | 0 | 0 | 10 | 0 | 5 | 5 | 1 month - 9 months | 0 | 0 | Allergic | CHOLANGIOLITE ENCEPHALOPATHIE | 3 | 0 | – |
| Cc1c(C)c2c(c(C)c1O)CCC(C)(COc1ccc(CC3SC(=O)NC3=O)cc1)O2 (stereo not drawn) [TROGLITAZONE] | 27 | 0 | 21 | 0 | 0 | 2 | 5.8 | 5 | 36 | 18 | 3 days - 2.3 years | 0 | 1 | Mitochondrial toxicity | CHOLESTASE_PROLONGEE | 4 | 1 | – |
